{"source": "paper PMC4785407", "about": "“Reduction Impairs the Antibacterial Activity but Benefits the LPS Neutralization Ability of Human Enteric Defensin 5” (Scientific Reports, 2016)", "key": {"[1]": {"details": "flexible N-terminus; cited from earlier work", "description": "Changes in function follow changes in structure."}, "bacteria": {"tested_on": "bacteria", "details": "cited from earlier work", "description": "Oxidized human defensin 5 (HD5OX), a 32-residue α defensin, is stored in the secretory granules of Paneth cells in the small intestine as a propeptide (E20-R94) and is processed by anionic and/or meso isoforms of trypsin during secretion or shortly thereafter at a cleavage site between R62 and A63[6]. […] We have previously prepared bioactive HD5OX using Pichia pastoris and design ... || HD5OX is an endogenous bactericidal agent."}, "[2]": {"tested_on": "LPS-binding protein (LBP); LPS-stimulated macrophages", "details": "cited from earlier work", "description": "Human defensins are also noted for their immunoregulatory properties. […] Additionally, some defensins are able to suppress the pro-inflammatory effect of bacterial lipopolysaccharide (LPS). For example, H ..."}, "[3]": {"tested_on": "interaction between LPS and LBP (mouse LBP)", "experiment": "LPS-binding protein (LBP) block assay", "assay_type": "biochemical", "details": "200 ng/mL, positive control; mouse LBP 60 ng/mL, biotinylated LPS 50 ng/mL", "experimental": "The effects of peptides on the interaction between LPS and low concentrations of LBP were determined as previously described. Briefly, the plates of a LBP ELISA kit (Boster EK1274) were blocked by the incubation of 1% BSA prepared in 10 mM sodium phosphate buffer (pH 7.4) at 37 °C for 1 h, which were subsequently washed with 0.1% Tween-20. Aliquots of 100 μL of mouse LBP (Sigma SRP6034, 60 ng/mL) were added and incubated at 37 °C for 1.5 h. Peptides were prepared in sterile water, with concentrations of 12.5, 25, and 50 μg/mL, respectively. Biotinylated LPS (50 ng/mL) was added in the absence or presence of peptides (pre-incubated at 37 °C for 30 min). Polymyxin B (200 ng/mL) was used as a positive control. The binding of LPS to LBP was determined using a chromogenic reaction between HRP-conjugated streptavidin (Boster BA1088) and TMB (Sigma 860336). Data were processed by subtracting the absorbance in the absence of LPS. Statistical significance was determined by the Student−Newman−Keuls multiple comparisons test.\nFigure 5. The efficiencies of peptides in blocking the interaction between LPS and LBP. A LBP ELISA plate was blocked by 1% BSA and subsequently washed with 0.1% Tween-20. Aliquots of 100 μL of the mouse LBP (60 ng/mL) was added and incubated at 37°C for 1.5 h. Peptides were prepared in sterile water, with concentrations of 12.5, 25, and 50 μg/mL, respectively. Biotinylated LPS (50 ng/mL) was then added in the absence or presence of peptides (pre-incubated at 37°C for 30 min). Data were processed by subtracting the absorbance in the absence of biotinylated LPS. Statistical significance was determined by the Student−Newman−Keuls multiple comparisons test. n.s, not significant; **, p < 0.01, relative to the value of the group solely treated with LPS."}}, "note": "Ends that are not written are not given here.", "data": [{"substance": "HBD3: human β defensin cited from the literature (GIINTLQKYYCRVRGGRCAVLSCLPKEEQIGKCSTRGRKCCRRKK; ends and bridges not checked; cysteine pairing not given here; UniProt P81534 23-67, looked up)", "values": [{"measurement": "conformation in SDS micelles", "setting": "[1]", "result": "adopts a α-helical-containing structure"}, {"measurement": "function without disulfide bonds", "setting": "bacteria", "result": "can function well without disulfide bonds"}]}, {"substance": "HNP1: human neutrophil peptide cited from the literature", "values": [{"measurement": "antibacterial property on loss of disulfide bonds", "setting": "bacteria", "result": "loss of disulfide bonds attenuates the antibacterial property"}, {"measurement": "interaction between LPS and low concentrations of LBP; TNF-α production", "setting": "[2]", "result": "can block the interaction between LPS and low concentrations of LPS-binding protein"}]}, {"substance": "human β defensin (HBD) 1 (DHYNCVSSGGQCLYSACPIFTKIQGTCYRGKAKCCK; ends and bridges not checked; cysteine pairing not given here; UniProt P60022 33-68, looked up) [HBD1, ubiquitously expressed peptide in human epithelia]", "values": [{"measurement": "antibacterial activity upon reduction", "setting": "bacteria; disulfide reduction", "result": "enhanced upon reduction"}, {"measurement": "interaction between LPS and low concentrations of LBP; TNF-α production", "setting": "[2]", "result": "can block the interaction between LPS and low concentrations of LPS-binding protein"}]}, {"substance": "Polymyxin B [PB, reference compound]", "values": [{"measurement": "effect on the interaction between LPS and LBP", "setting": "[3]", "result": "significantly inhibited the LPS-LBP interaction"}]}]}
